Molecular target: human NaV 1.7 (Homo sapiens, UniProt Q15858)
Experiment: E-VIPR optical membrane potential assay with electrical stimulation
Assay type: cell-based
Conditions: sodium channel inhibition; read-out: Binned Activity Data (IC50)
Outline: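 Membrane-potential read-out: background-subtracted 460 nm/580 nm ratio during a 9 s current-controlled stimulus, 400 Hz scan. Before stimulation, NaV1.7-HEK cells carried coumarin/oxonol dye and compound (final DMSO 0.625%) for 20–35 min at room temperature; tetracaine 125 μM served as positive control.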

Sequence of human NaV 1.7 (Q15858 whole entry): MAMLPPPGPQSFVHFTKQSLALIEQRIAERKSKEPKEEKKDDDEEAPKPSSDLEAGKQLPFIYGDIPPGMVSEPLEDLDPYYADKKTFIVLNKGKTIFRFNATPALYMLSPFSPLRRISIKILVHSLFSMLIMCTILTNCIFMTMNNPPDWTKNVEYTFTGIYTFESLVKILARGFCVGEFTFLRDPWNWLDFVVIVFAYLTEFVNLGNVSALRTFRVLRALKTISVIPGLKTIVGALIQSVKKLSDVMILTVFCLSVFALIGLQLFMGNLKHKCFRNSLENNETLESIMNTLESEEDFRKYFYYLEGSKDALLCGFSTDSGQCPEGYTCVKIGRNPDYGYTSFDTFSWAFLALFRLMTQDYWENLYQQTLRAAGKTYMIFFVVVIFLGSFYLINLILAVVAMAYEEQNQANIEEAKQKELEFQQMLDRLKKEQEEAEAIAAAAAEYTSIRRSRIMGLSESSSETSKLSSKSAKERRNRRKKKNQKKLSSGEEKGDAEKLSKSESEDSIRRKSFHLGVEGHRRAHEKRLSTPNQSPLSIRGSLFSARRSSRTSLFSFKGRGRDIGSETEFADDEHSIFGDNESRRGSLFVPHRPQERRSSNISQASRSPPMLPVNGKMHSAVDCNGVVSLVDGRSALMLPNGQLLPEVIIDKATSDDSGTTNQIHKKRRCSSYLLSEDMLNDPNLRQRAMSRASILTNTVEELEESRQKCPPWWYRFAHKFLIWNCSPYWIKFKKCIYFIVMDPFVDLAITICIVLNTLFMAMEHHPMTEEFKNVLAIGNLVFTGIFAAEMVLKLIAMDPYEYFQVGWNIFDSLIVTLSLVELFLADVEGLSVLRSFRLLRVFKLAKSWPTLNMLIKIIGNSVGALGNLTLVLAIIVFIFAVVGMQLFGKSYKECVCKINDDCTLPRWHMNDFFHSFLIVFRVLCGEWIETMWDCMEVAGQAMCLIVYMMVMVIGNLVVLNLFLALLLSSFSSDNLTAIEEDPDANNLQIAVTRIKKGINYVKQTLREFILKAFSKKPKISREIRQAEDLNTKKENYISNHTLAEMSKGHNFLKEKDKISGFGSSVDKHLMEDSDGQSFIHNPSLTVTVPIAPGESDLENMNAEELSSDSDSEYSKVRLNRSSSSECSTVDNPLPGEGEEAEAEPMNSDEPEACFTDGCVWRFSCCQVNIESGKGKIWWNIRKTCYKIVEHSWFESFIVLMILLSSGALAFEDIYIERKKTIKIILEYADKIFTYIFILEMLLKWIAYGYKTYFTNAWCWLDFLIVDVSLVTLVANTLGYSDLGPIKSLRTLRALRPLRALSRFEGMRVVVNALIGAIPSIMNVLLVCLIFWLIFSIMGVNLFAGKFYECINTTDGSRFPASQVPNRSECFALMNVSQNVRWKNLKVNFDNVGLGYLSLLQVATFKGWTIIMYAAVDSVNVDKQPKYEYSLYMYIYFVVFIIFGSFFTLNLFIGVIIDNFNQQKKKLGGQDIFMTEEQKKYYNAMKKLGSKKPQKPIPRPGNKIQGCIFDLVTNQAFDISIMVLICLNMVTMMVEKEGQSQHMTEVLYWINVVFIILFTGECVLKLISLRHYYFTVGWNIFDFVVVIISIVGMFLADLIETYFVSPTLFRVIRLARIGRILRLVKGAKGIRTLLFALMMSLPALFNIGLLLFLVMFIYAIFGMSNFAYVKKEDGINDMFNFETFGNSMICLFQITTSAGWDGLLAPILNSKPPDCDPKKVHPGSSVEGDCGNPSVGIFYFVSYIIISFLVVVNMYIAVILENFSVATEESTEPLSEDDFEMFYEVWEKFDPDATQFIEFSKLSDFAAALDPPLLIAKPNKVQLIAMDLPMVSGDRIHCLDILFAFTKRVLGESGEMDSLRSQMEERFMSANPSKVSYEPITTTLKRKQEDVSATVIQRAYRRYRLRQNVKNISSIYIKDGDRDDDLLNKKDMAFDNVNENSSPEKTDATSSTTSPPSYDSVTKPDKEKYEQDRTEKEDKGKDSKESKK

Row | SMILES | IC50
1 | COc1ccccc1C(=O)N1CCC2(CC1)Oc1cc(F)ccc1-c1c2cnn1C [Compound 845] | ≤ 2000 nM
2 | O=C(c1ccc(OCCO)cc1)N1CCC2(CC1)Oc1ccccc1-n1c(C(F)(F)F)ccc12 [Compound 846] | ≤ 2000 nM
3 | COc1cc(C(=O)N2CCC3(CC2)Oc2ccccc2-n2cccc23)ccc1OCC(C)(C)OC [Compound 847] | ≤ 2000 nM
4 | CCc1ccc(C(=O)N2CCC3(CC2)Oc2cc(CO)ccc2-n2cccc23)cc1OC [Compound 848] | ≤ 2000 nM
5 | CC(C)(C)c1ccc(C(=O)N2CCC3(CC2)Oc2ccccc2-n2c(C#N)ccc23)cn1 [Compound 849] | > 5000 nM
6 | COc1cc(C(=O)N2CCC3(CC2)Oc2cc(Cl)ccc2-n2cccc23)ccc1OCCS(C)(=O)=O [Compound 851] | ≤ 2000 nM
7 | Cc1cc2n(c1)-c1ccccc1OC21CCN(C(=O)c2ccc(OC(C)C)c(C)c2)CC1 [Compound 852] | ≤ 2000 nM
8 | COc1c(CO)cccc1C(=O)N1CCC2(CC1)Oc1ccccc1-c1c2cnn1C [Compound 853] | ≤ 2000 nM
9 | N#Cc1ccc2n1-c1ccccc1OC21CCN(C(=O)c2ccc(OC3CNC3)cc2)CC1 [Compound 854] | 2000 to 5000 nM
10 | COc1cc(C(=O)N2CCC3(CC2)Oc2cc(F)ccc2-n2cccc23)ccc1C(C)(C)C [Compound 855] | ≤ 2000 nM
11 | Cn1ncc2c1-c1ccccc1OC21CCN(C(=O)c2ccc(O)c(F)c2)CC1 [Compound 856] | ≤ 2000 nM
12 | COc1ccc(C(=O)N2CCC3(CC2)Oc2cc(Cl)ccc2-n2cccc23)cc1C(F)(F)F [Compound 857] | ≤ 2000 nM
13 | COc1ccc(Cl)cc1C(=O)N1CCC2(CC1)Oc1cc(Cl)ccc1-n1cccc12 [Compound 858] | ≤ 2000 nM
14 | CCS(=O)(=O)c1ccc(C(=O)N2CCC3(CC2)Oc2ccccc2-c2c3cnn2C)cc1 [Compound 859] | 2000 to 5000 nM
15 | Cn1ncc2c1-c1ccccc1OC21CCN(C(=O)c2cccc3c2CC(C)(C)O3)CC1 [Compound 860] | ≤ 2000 nM
16 | Cn1ncc2c1-c1ccccc1OC21CCN(C(=O)c2ccc3c(ccn3C)c2)CC1 [Compound 861] | ≤ 2000 nM

Row | SMILES | IC50
17 | Cn1ncc2c1-c1ccccc1OC21CCN(C(=O)c2cccnc2Oc2ccc(F)cc2)CC1 [Compound 862] | ≤ 2000 nM
18 | CCc1ccc(C(=O)N2CCC3(CC2)Oc2cc(C(=O)N(C)C)ccc2-n2cccc23)cc1OC [Compound 863] | ≤ 2000 nM
19 | N#Cc1ccc2n1-c1ccccc1OC21CCN(C(=O)c2ccc(C3(O)COC3)cc2)CC1 [Compound 864] | ≤ 2000 nM
20 | CCOc1ccc(C(=O)N2CCC3(CC2)Oc2ccccc2-c2c3cnn2C)cc1OC [Compound 866] | ≤ 2000 nM
21 | Cn1ncc2c1-c1ccccc1OC21CCN(C(=O)c2cccc3c2cnn3C)CC1 [Compound 867] | ≤ 2000 nM
22 | Cc1cccc(C(=O)N2CCC3(CC2)Oc2ccccc2-c2c3cnn2C)c1O [Compound 868] | 2000 to 5000 nM
23 | CC(C)(C)S(=O)(=O)c1ccc(C(=O)N2CCC3(CC2)Oc2ccccc2-n2c(C#N)ccc23)cc1 [Compound 869] | ≤ 2000 nM
24 | O=C(c1cccc(Cl)c1)N1CCC2(CC1)Oc1cc(Cl)ccc1-n1cccc12 [Compound 870] | ≤ 2000 nM
25 | COc1ccc(C(=O)N2CCC3(CC2)Oc2ccccc2-n2c(C(F)(F)F)ccc23)cc1Cl [Compound 871] | ≤ 2000 nM
26 | COc1ccc(C(=O)N2CCC3(CC2)Oc2ccccc2-n2c(C(F)(F)F)ccc23)nc1C [Compound 872] | ≤ 2000 nM
27 | O=C(c1ccc(S(=O)(=O)CC2CCC2)cn1)N1CCC2(CC1)Oc1ccccc1-n1c(C(F)(F)F)ccc12 [Compound 873] | ≤ 2000 nM
28 | CC(C)CS(=O)(=O)c1ccc(C(=O)N2CCC3(CC2)Oc2ccccc2-n2c(C(F)(F)F)ccc23)nc1 [Compound 874] | ≤ 2000 nM
29 | COc1ccc(C(=O)N2CCC3(CC2)Oc2ccccc2-n2c(C(F)(F)F)ccc23)c(F)c1 [Compound 875] | 2000 to 5000 nM
30 | Cc1cc(C(F)F)n2ncc(C(=O)N3CCC4(CC3)Oc3ccccc3-n3c(C(F)(F)F)ccc34)c2n1 [Compound 876] | ≤ 2000 nM
31 | O=C(c1ccc(S(=O)(=O)CC2CCOC2)cn1)N1CCC2(CC1)Oc1ccccc1-n1c(C(F)(F)F)ccc12 (stereo not shown) [Compound 877] | ≤ 2000 nM

Source: patent publication US9365588B2, “Benzoxazines as modulators of ion channels” (Vertex Pharmaceuticals Incorporated, priority 2011, dated 2016)
